# Laboratory results as given in patent publication US7511077B2, “Diamine calcium channel blockers” (Neuromed Pharmaceuticals Ltd., priority 2005, dated 2009).
# Where two headings read alike, the source gives them in different places.
# Columns and labels:
# [1] = target: T1, rat brain N-type calcium channel subunits (α1B+α2δ+β1b cDNA subunits) (Rattus norvegicus, UniProt Q02294); assay: N-type calcium channel block, whole cell patch clamp in HEK 293 cells; assay type: cell-based; settings: holding potential −80 mV to +10 mV
# T1 construct: expressed in transfected cells; host or cells: HEK 293
# T1 sequence (Q02294 whole entry): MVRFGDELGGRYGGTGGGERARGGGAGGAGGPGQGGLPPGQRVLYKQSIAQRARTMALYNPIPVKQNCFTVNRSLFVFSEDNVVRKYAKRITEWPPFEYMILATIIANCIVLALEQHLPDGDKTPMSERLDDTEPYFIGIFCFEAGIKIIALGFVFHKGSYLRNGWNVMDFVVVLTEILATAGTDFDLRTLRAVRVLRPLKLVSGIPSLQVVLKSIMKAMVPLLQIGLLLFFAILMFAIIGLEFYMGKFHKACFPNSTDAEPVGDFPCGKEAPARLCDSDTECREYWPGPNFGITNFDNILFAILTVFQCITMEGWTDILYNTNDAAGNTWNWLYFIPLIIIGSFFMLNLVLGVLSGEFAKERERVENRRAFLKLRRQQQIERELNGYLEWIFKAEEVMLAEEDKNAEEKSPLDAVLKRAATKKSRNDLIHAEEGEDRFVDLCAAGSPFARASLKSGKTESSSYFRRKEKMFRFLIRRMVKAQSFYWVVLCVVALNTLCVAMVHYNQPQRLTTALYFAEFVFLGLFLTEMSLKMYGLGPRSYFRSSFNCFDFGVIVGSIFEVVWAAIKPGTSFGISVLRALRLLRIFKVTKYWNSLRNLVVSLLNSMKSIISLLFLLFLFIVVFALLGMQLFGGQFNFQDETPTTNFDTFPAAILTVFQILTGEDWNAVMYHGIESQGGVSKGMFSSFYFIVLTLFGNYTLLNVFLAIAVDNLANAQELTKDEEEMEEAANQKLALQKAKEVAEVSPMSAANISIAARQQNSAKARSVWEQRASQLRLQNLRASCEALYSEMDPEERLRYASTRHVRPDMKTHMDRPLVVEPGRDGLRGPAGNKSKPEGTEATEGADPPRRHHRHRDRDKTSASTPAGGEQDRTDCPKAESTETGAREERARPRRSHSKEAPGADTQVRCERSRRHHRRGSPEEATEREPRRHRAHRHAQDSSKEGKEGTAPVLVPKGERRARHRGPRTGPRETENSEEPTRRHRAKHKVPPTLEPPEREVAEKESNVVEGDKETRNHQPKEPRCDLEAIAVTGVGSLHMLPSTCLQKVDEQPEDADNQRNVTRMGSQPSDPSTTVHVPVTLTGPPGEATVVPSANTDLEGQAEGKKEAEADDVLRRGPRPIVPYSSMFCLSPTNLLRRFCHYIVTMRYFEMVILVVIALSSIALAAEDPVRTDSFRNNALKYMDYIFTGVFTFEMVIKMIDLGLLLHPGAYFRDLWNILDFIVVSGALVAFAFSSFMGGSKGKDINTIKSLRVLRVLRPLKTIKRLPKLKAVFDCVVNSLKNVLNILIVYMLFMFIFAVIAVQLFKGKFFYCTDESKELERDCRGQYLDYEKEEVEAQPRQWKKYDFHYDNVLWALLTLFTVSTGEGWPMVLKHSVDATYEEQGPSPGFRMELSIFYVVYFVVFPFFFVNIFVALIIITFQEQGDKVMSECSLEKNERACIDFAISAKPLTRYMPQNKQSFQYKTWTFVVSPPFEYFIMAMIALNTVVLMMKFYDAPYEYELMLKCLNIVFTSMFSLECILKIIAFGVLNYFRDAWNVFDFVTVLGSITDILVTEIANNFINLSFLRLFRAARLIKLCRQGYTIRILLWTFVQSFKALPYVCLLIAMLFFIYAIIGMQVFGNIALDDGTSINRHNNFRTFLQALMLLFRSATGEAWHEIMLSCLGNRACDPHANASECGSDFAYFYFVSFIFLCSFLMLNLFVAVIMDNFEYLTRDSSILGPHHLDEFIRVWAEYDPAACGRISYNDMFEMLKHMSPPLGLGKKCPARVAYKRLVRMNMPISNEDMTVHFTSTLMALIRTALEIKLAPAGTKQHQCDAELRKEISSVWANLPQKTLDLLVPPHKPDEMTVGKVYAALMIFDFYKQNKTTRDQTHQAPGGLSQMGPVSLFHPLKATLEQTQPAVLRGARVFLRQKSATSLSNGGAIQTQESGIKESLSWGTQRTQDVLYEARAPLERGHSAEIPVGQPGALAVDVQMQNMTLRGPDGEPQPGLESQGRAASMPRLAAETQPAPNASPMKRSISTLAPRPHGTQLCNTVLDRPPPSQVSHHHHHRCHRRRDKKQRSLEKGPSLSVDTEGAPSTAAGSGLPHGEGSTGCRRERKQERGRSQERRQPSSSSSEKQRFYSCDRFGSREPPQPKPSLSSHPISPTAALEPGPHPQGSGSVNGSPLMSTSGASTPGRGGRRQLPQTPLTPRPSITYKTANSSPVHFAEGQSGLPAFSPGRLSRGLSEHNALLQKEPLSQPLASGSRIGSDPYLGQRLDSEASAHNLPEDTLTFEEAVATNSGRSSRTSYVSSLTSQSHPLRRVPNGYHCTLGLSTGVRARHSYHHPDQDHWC
# Method: N-type calcium channel blocking activity was assayed in human embryonic kidney cells, HEK 293, stably transfected with the rat brain N-type calcium channel subunits (α1B+α2δ+β1b cDNA subunits). Alternatively, N-type calcium channels (α1B+α2δ+β1b cDNA subunits), L-type channels (α1C+α2δ+β1b cDNA subunits) and P/Q-type channels (α1A+α2δ+β1b cDNA subunits) were transiently expressed in HEK 293 cells. Briefly, cells were cultured in Dulbecco's modified eagle medium (DMEM) supplemented with 10% fetal bovine serum, 200 U/ml penicillin and 0.2 mg/ml streptomycin at 37° C. with 5% CO2. At 85% confluency cells were split with 0.25% trypsin/1 mM EDTA and plated at 10% confluency on glass coverslips. At 12 hours the medium was replaced and the cells transiently transfected using a standard calcium phosphate protocol and the appropriate calcium channel cDNA's. Fresh DMEM was supplied and the cells transferred to 28° C./5% CO2. Cells were incubated for 1 to 2 days prior to whole cell recording.
# Whole cell patch clamp experiments were performed using an Axopatch 200B amplifier (Axon Instruments, Burlingame, Calif.) linked to a personal computer equipped with pCLAMP software. The external and internal recording solutions contained, respectively, 5 mM BaCl2, 10 mM MgCl2, 10 mM HEPES, 40 mM TEACl, 10 mM glucose, 87.5 mM CsCl (pH 7.2) and 108 mM CsMS, 4 mM MgCl2, 9 mM EGTA, 9 mM HEPES (pH 7.2). Currents were typically elicited from a holding potential of −80 mV to +10 mV using Clampex software (Axon Instruments). Typically, currents were first elicited with low frequency stimulation (0.067 Hz) and allowed to stabilize prior to application of the compounds. The compounds were then applied during the low frequency pulse trains for two to three minutes to assess tonic block, and subsequently the pulse frequency was increased to 0.2 Hz to assess frequency dependent block. Data were analyzed using Clampfit (Axon Instruments) and SigmaPlot 4.0 (Jandel Scientific).
# [2] = system: Rings from Rat Mesenteric Artery maximally pre-contracted with PE; assay: Relaxation of pre-contracted rings from rat mesenteric artery; settings: compound at 10^−5 M, rings maximally pre-contracted with PE at 10^−4 M, read-out: Mesenteric artery Max % relax
# Method: Sprague-Dawley rats (350-400 g, Charles River Canada) were anaesthetized with sodium pentobarbital (60 mg/kg). The mesenteric arteries were removed and suspended in a tissue bath filled with Krebs-Henseleit solution aerated with 95% O2 and 5% CO2 at 37° C. The tissues were equilibrated for one hour prior to the construction of a concentration-response curve to phenylephrine (PE). Following recovery of the response to PE, a second curve to PE was constructed at 5 min after the addition of a calcium channel blocker (n=2-8, each from a separate rat) or the vehicle (50 μl of equimolar DMSO). After recovery, a third and fourth curve to PE were constructed after addition of a higher concentration of blocker or vehicle. The protocol was repeated using portal veins (n=4, each from a separate rat).
# [3] = target: T2, human α1G T-type channels (Homo sapiens, UniProt O43497); assay: T-type calcium channel block, patch clamp in HEK cell lines; assay type: cell-based
# T2 construct: expressed in transfected cells; host or cells: HEK cell lines
# T2 sequence (O43497 whole entry): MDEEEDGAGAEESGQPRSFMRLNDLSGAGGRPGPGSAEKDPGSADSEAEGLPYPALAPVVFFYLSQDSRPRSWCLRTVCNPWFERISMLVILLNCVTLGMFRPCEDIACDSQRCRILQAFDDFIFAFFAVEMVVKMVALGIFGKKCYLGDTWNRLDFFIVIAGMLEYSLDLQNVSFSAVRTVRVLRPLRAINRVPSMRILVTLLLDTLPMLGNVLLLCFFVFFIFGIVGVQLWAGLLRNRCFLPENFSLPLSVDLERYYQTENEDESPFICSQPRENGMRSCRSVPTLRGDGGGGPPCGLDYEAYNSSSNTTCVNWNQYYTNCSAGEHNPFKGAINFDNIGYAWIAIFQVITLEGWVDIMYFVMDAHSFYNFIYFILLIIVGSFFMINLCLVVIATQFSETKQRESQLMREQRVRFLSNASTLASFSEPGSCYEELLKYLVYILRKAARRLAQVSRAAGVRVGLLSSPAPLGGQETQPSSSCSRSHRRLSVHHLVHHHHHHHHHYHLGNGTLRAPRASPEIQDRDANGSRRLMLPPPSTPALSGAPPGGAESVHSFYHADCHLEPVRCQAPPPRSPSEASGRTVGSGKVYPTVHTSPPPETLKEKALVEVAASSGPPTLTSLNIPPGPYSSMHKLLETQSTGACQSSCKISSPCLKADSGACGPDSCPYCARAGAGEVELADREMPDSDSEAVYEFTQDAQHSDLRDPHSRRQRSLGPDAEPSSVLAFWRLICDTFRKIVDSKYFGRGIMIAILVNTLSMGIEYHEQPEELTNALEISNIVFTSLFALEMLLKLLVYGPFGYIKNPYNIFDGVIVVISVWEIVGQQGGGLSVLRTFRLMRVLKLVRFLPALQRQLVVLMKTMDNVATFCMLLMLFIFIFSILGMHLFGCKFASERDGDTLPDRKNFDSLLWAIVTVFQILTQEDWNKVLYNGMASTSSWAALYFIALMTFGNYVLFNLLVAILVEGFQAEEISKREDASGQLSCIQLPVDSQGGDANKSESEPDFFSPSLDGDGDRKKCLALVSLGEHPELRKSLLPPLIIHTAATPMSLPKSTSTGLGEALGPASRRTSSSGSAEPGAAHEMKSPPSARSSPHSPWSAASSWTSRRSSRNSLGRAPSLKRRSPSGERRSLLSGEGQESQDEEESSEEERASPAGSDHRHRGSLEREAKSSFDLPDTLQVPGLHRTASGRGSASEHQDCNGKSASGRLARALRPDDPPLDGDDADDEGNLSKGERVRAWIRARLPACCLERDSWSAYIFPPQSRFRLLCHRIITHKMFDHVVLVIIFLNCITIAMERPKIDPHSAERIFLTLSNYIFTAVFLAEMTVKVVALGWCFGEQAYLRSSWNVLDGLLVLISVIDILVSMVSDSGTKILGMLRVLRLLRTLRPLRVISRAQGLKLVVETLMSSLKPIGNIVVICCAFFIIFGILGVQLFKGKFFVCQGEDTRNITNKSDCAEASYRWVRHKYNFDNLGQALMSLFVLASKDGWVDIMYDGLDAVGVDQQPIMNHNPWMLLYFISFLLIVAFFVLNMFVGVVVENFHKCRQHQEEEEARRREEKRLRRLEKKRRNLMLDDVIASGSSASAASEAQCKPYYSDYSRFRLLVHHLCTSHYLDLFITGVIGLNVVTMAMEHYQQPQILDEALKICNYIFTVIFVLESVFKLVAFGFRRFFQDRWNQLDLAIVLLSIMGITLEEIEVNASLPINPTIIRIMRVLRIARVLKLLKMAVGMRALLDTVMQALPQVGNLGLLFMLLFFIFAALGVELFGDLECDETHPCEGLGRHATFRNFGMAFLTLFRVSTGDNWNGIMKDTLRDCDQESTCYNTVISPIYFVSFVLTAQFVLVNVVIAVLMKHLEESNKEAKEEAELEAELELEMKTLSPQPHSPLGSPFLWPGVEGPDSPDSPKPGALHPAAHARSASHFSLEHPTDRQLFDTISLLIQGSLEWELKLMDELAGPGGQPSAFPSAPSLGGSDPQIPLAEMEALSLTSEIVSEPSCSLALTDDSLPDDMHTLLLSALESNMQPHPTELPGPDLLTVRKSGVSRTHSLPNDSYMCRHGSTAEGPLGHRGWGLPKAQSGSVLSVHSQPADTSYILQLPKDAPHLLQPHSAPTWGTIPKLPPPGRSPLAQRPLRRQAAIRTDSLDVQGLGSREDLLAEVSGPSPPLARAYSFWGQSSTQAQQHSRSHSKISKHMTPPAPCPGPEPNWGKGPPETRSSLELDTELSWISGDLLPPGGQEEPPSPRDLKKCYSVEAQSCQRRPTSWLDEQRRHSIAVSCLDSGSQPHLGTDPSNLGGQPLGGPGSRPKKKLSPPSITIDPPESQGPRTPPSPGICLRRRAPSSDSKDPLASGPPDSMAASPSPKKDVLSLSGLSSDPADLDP
# Method: Standard patch-clamp techniques were employed to identify blockers of T-type currents. Briefly, previously described HEK cell lines stably expressing human α1G T-type channels were used for all the recordings (passage #: 4-20, 37° C., 5% CO2). To obtain T-type currents, plastic dishes containing semi-confluent cells were positioned on the stage of a ZEISS AXIOVERT S100 microscope after replacing the culture medium with external solution (see below). Whole-cell patches were obtained using pipettes (borosilicate glass with filament, O.D.: 1.5 mm, I.D.: 0.86 mm, 10 cm length), fabricated on a SUTTER P-97 puller with resistance values of ˜5 MΩ (see below for internal solution).
# T-type currents were reliably obtained by using two voltage protocols: • (1) “non-inactivating”, and (2) “inactivation”
# In the non-inactivating protocol, the holding potential is set at −110 mV and with a pre-pulse at −100 mV for 1 second prior to the test pulse at −40 mV for 50 ms. In the inactivation protocol, the pre-pulse is at approximately −85 mV for 1 second, which inactivates about 15% of the T-type channels.
# Test compounds were dissolved in external solution, 0.1-0.01% DMSO. After ˜10 min rest, they were applied by gravity close to the cell using a WPI microfil tubing. The “non-inactivated” pre-pulse was used to examine the resting block of a compound. The “inactivated” protocol was employed to study voltage-dependent block. However, the initial data shown below were mainly obtained using the non-inactivated protocol only. IC50 values are shown for various compounds of the invention in Table 5.
# [4] = system: Rings from Rat Portal Vein maximally pre-contracted with PE; assay: Relaxation of pre-contracted rings from rat portal vein; settings: compound at 10^−5 M, rings maximally pre-contracted with PE at 10^−4 M, read-out: Portal vein Max % relax
# [5] = Blood pressure reduction in SHR; assay type: in vivo
# [6] = system: T-type over L-type channels; settings: cited from earlier work
# [7] = low frequency stimulation 0.067 Hz (tonic block), read-out: IC50 @ 0.067 Hz
# [8] = pulse frequency 0.2 Hz (frequency dependent block), read-out: IC50 @ 0.2 Hz
# [9] = non-inactivating protocol, pre-pulse −100 mV (resting block), read-out: IC50 @ −100 mV
# [10] = −80 mV (inactivation protocol, voltage-dependent block), read-out: IC50 @ −80 mV
Compound,"IC50 [1, 7]","IC50 [1, 8]",Emax at 10 µM [2],"IC50 [3, 9]","IC50 [3, 10]",Emax at 10 µM [4],BP SHR at 4 hrs % reduction [5],selective for T-type over L-type channels [6]
"CC(C)(C)c1ccc(C(=O)NC/C=C\CNC(=O)CCCCC(c2ccc(F)cc2)c2ccc(F)cc2)cc1 [Compound P4, N-{(Z)-4-[6,6-Bis-(4-fluoro-phenyl)-hexanoylamino]-but-2-enyl}-4-tert-butyl-benzamide]",86 nM,59 nM,8%,38 nM,12 nM,,,
"O=C(CCCCC(c1ccc(F)cc1)c1ccc(F)cc1)NC/C=C\CNC(=O)c1cc(C(F)(F)F)cc(C(F)(F)F)c1 [Compound P5, N-{(Z)-4-[6,6-Bis-(4-fluoro-phenyl)-hexanoylamino]-but-2-enyl}-3,5-bis-trifluoromethyl-benzamide]",74 nM,46 nM,10%,27 nM,7 nM,,,
"O=C(CCCCC(c1ccc(F)cc1)c1ccc(F)cc1)NC/C=C\CNC(=O)COc1ccc(Cl)cc1 [Compound P6, 6,6-Bis-(4-fluoro-phenyl)-hexanoic acid{(Z)-4-[2-(4-chloro-phenoxy)-acetylamino]-but-2-enyl}-amide]",58 nM,27 nM,35%,128 nM,67 nM,28%,,
"O=C(CCCCC(c1ccc(F)cc1)c1ccc(F)cc1)NC/C=C\CNC(=O)c1ccc(F)cc1 [Compound P10, N-{(Z)-4-[6,6-Bis-(4-fluoro-phenyl)-hexanoylamino]-but-2-enyl}-4-fluoro-benzamide]",182 nM,112 nM,35%,20 nM,6 nM,38%,,
"O=C(CCCCC(c1ccc(F)cc1)c1ccc(F)cc1)NC/C=C/CNC(=O)c1cc(C(F)(F)F)cc(C(F)(F)F)c1 [Compound P15, N-{(E)-4-[6,6-Bis-(4-fluoro-phenyl)-hexanoylamino]-but-2-enyl}-3,5-bis-trifluoromethyl-benzamide]",19 nM,127 nM,9%,54 nM,21 nM,,,
"COc1c(C(C)(C)C)cc(C(=O)NCC#CCNC(=O)CCCCC(c2ccc(F)cc2)c2ccc(F)cc2)cc1C(C)(C)C [Compound P23, N-{4-[6,6-Bis-(4-fluoro-phenyl)-hexanoylamino]-but-2-ynyl}-3,5-di-tert-butyl-4-methoxy-benzamide]",,,0%,,,,,
"CC(C)(C)c1ccc(C(=O)NCC#CCNC(=O)CCCCC(c2ccc(F)cc2)c2ccc(F)cc2)cc1 [Compound P24, N-{4-[6,6-Bis-(4-fluoro-phenyl)-hexanoylamino]-but-2-ynyl}-4-tert-butyl-benzamide]",,,0%,,,,,
"Cc1ccc(C(=O)NCC#CCNC(=O)CCCCC(c2ccc(F)cc2)c2ccc(F)cc2)cc1 [Compound P26, N-{4-[6,6-Bis-(4-fluoro-phenyl)-hexanoylamino]-but-2-ynyl}-4-methyl-benzamide]",144 nM,40 nM,40%,336 nM,202 nM,34%,,
"COc1ccc(C(=O)NCC#CCNC(=O)CCCCC(c2ccc(F)cc2)c2ccc(F)cc2)cc1 [Compound P27, N-{4-[6,6-Bis-(4-fluoro-phenyl)-hexanoylamino]-but-2-ynyl}-4-methoxy-benzamide]",,,41%,,,51%,,
"O=C(CCCCC(c1ccc(F)cc1)c1ccc(F)cc1)NCC#CCNC(=O)c1ccc(Cl)cc1 [Compound P28, N-{4-[6,6-Bis-(4-fluoro-phenyl)-hexanoylamino]-but-2-ynyl}-4-chloro-benzamide]",360 nM,360 nM,61%,72 nM,29 nM,25%,13 n = 4%,
"O=C(CCCCC(c1ccc(F)cc1)c1ccc(F)cc1)NCC#CCNC(=O)c1ccc(F)cc1 [Compound P29, N-{4-[6,6-Bis-(4-fluoro-phenyl)-hexanoylamino]-but-2-ynyl}-4-fluoro-benzamide]",290 nM,290 nM,63%,696 nM,101 nM,51%,,
"O=C(CC(c1ccccc1)c1ccccc1)NCC#CCN(Cc1ccccn1)Cc1ccccn1 [Compound P32, N-[4-(Bis-pyridin-2-ylmethyl-amino)-but-2-ynyl]-3,3-diphenyl-propionamide]",2200 nM,568 nM,50%,1800 nM,1100 nM,49%,,
"CC(C)c1ccc(C(=O)NCCCCNC(=O)CCCCC(c2ccc(F)cc2)c2ccc(F)cc2)cc1 [Compound P37, N-{4-[6,6-Bis-(4-fluoro-phenyl)-hexanoylamino]-butyl}-4-isopropyl-benzamide]",310 nM,300 nM,42%,31 nM,8 nM,51%,,
COCC(=O)O[C@]1(CCN(C)CCCc2nc3ccccc3[nH]2)CCc2cc(F)ccc2[C@@H]1C(C)C [Mibefradil],,,,,,,,10-30 fold
